# Earlier results as cited in patent US10195257B2 (Qantu Therapeutics, Inc., priority 2013, dated 2019).
# Tests used:
# [1] = test system: OVA-specific CTLs; conditions: mice immunized with OVA plus adjuvant
# [2] = test system: Aβ; conditions: without any adjuvant, administered intra-nasally
# [3] = test system: T cells; conditions: in vivo
molecule,measurement,setting,value
QS-21,immune response type and CTL production,[1],Th1 immune response with the concomitant production of OVA-specific CTLs
Aβ40: main Aβ peptide that contains amino acid residues from 1 to 40,immune response and Aβ plaques,[2],Th2 immune response and reduced levels of Aβ plaques
"O=Cc1c(O)cccc1OCc1ccc(C(=O)O)cc1 [tucaresol, 4-(2-formyl-3-hydroxyphenoxymethylbenzoic acid)]",type of immunity favored,[3],favors a Th1-biased immunity with a Th1-type cytokine profile and concomitant CTL production
